Test results published in US20150344466A1 (SUMITOMO CHEMICAL COMPANY, LIMITED, priority 2013, published 2015).

Columns and labels:
Culex pipiens pallens = experiment: Knockdown spray test on adult Culex pipiens pallens (Test Example 4); format: in vivo; conditions: topical, 0.25 h, active ingredient 0.1% w/v, 0.5 ml sprayed, within 15 minutes, read-out: knockdown rate of the test insects within 15 minutes
Description: Ten adult Culex pipiens pallens were released in a polyethylene cup (bottom diameter: 10.6 cm), and the cup was covered with a 16-mesh nylon gauze. The polyethylene cup was placed on the bottom of a test chamber (bottom: 46 cm×46 cm, height: 70 cm). From a height of 30 cm above the upper surface of the polyethylene cup, 0.5 ml of the test drug solution was sprayed using a spray gun (a spraying pressure of 0.4 kg/cm^2). Immediately after spraying, the cup was taken out from the test chamber, and after 2 minutes, 5 minutes and 15 minutes, the number of knocked-down insects was counted to obtain a knockdown rate. The knockdown rate was calculated by the following equation.
(§1) Knockdown Rate (%)=(Number of Knocked-down Insects/Number of Tested Insects)×100

Blattella germanica = experiment: Knockdown spray test on Blattella germanica, 0.1% w/v oil formulation (Test Example 2); format: in vivo; conditions: topical, 0.25 h, active ingredient 0.1% w/v, 1.5 ml sprayed, within 15 minutes, read-out: knockdown rate of the test insects within 15 minutes
Description: Ten Blattella germanica (5 males and 5 females) were released in a test container (8.75 cm in diameter, 7.5 cm in height, and the bottom made of 16 mesh metallic wire) with the inner wall on which butter was applied, and the container was placed on the bottom of a test chamber (bottom: 46 cm×46 cm, height: 70 cm). From a height of 60 cm above the upper surface of the container, 1.5 ml of the test drug solution was sprayed using a spray gun (a spraying pressure of 0.42 kg/cm^2). Thirty seconds after spraying, the container was taken out from the test chamber, and after 2 minutes, 5 minutes and 15 minutes, the number of knocked-down insects was counted to obtain a knockdown rate. The knockdown rate was calculated by the following equation.
as §1

Compound: Cc1c(C(=O)NCC2CCOC2)noc1COCc1cccc(F)c1 (stereo not drawn) [(217), N-(tetrahydrofuran-3-ylmethyl)-5-(3-fluorobenzyloxymethyl)-4-methylisoxazole-3-carboxamide]
- pest or weed control at 0.1 % strength (Culex pipiens pallens): ≥ 80%
- pest or weed control at 0.1 % strength (Blattella germanica): ≥ 80%

Compound: Cc1c(C(=O)NCC2CCOC2)noc1CCCc1ccccc1 (stereo not drawn) [(221), N-(tetrahydrofuran-3-ylmethyl)-4-methyl-5-(3-phenylpropyl)isoxazole-3-carboxamide]
- pest or weed control at 0.1 % strength (Culex pipiens pallens): ≥ 80%
- pest or weed control at 0.1 % strength (Blattella germanica): ≥ 80%

Compound: Cc1ccccc1COCc1cc(C(=O)NCC2CCOC2)no1 (stereo not drawn) [(226)]
- pest or weed control at 0.1 % strength (Culex pipiens pallens): ≥ 80%
- pest or weed control at 0.1 % strength (Blattella germanica): ≥ 80%

Compound: O=C(NCC1CCOC1)c1cc(CCCc2ccc3ccccc3c2)on1 (stereo not drawn) [(228), N-(tetrahydrofuran-3-ylmethyl)-5-[3-(2-naphthyl)propyl]isoxazole-3-carboxamide]
- pest or weed control at 0.1 % strength (Culex pipiens pallens): ≥ 80%
- pest or weed control at 0.1 % strength (Blattella germanica): ≥ 80%

Compound: O=C(NCC1COCCO1)c1cc(CCCc2ccc3ccccc3c2)on1 (stereo not drawn) [(230), N-(1,4-dioxan-2-ylmethyl)-5-[3-(2-naphthyl)propyl]isoxazole-3-carboxamide]
- pest or weed control at 0.1 % strength (Culex pipiens pallens): ≥ 80%
- pest or weed control at 0.1 % strength (Blattella germanica): ≥ 80%

Compound: O=C(NCC1CCOC1)c1cc(COc2ccc3c(c2)CCCC3)on1 (stereo not drawn) [(239), N-(tetrahydrofuran-3-ylmethyl)-5-(5,6,7,8-tetrahydronaphthalen-2-yl)oxymethylisoxazole-3-carboxamide]
- pest or weed control at 0.1 % strength (Culex pipiens pallens): ≥ 80%
- pest or weed control at 0.1 % strength (Blattella germanica): ≥ 80%

Compound: O=C(NCC1CCOC1)c1cc(CSCc2ccc3ccccc3c2)on1 (stereo not drawn) [(253)]
- pest or weed control at 0.1 % strength (Culex pipiens pallens): ≥ 80%
- pest or weed control at 0.1 % strength (Blattella germanica): ≥ 80%

Compound: O=C(NCC1CCOC1)c1noc(COCc2ccc3ccccc3c2)c1F (stereo not drawn) [(255), N-(tetrahydrofuran-3-ylmethyl)-5-(2-naphthylmethoxymethyl)-4-fluoroisoxazole-3-carboxamide]
- pest or weed control at 0.1 % strength (Culex pipiens pallens): ≥ 80%
- pest or weed control at 0.1 % strength (Blattella germanica): ≥ 80%

Compound: O=C(NCC1CCOC1)c1cc(COCc2cc3ccccc3cc2F)on1 (stereo not drawn) [(257), N-(tetrahydrofuran-3-ylmethyl)-5-(3-fluoro-2-naphthylmethoxymethyl)isoxazole-3-carboxamide]
- pest or weed control at 0.1 % strength (Culex pipiens pallens): ≥ 80%
- pest or weed control at 0.1 % strength (Blattella germanica): ≥ 80%

Compound: O=C(NCC1CCOC1)c1cc(COCc2ccc(F)c(Cl)c2)on1 (stereo not drawn) [(261), N-(tetrahydrofuran-3-ylmethyl)-5-(3-chloro-4-fluorobenzyloxymethyl)isoxazole-3-carboxamide]
- pest or weed control at 0.1 % strength (Culex pipiens pallens): ≥ 80%
- pest or weed control at 0.1 % strength (Blattella germanica): ≥ 80%

Compound: O=C(NCC1CCOC1)c1cc(COCc2ccc(F)c(F)c2)on1 (stereo not drawn) [(263), N-(tetrahydrofuran-3-ylmethyl)-5-(3,4-difluorobenzyloxymethyl)isoxazole-3-carboxamide]
- pest or weed control at 0.1 % strength (Culex pipiens pallens): ≥ 80%
- pest or weed control at 0.1 % strength (Blattella germanica): ≥ 80%

Compound: O=C(NCC1CCOC1)c1cc(COCc2ccccc2Br)on1 (stereo not drawn) [(265), N-(tetrahydrofuran-3-ylmethyl)-5-(2-bromobenzyloxymethyl)isoxazole-3-carboxamide]
- pest or weed control at 0.1 % strength (Culex pipiens pallens): ≥ 80%
- pest or weed control at 0.1 % strength (Blattella germanica): ≥ 80%

Compound: O=C(NCC1CCOC1)c1cc(COCc2ccc(Cl)c(F)c2)on1 (stereo not drawn) [(276), N-(tetrahydrofuran-3-ylmethyl)-5-(4-chloro-3-fluorobenzyloxymethyl)isoxazole-3-carboxamide]
- pest or weed control at 0.1 % strength (Culex pipiens pallens): ≥ 80%
- pest or weed control at 0.1 % strength (Blattella germanica): ≥ 80%

Compound: COc1ccc(COCc2cc(C(=O)NCC3CCOC3)no2)cc1F (stereo not drawn) [(277), N-(tetrahydrofuran-3-ylmethyl)-5-(3-fluoro-4-methoxybenzyloxymethyl)isoxazole-3-carboxamide]
- pest or weed control at 0.1 % strength (Culex pipiens pallens): ≥ 80%
- pest or weed control at 0.1 % strength (Blattella germanica): ≥ 80%

Compound: O=C(NCC1CCOC1)c1noc(COCc2ccccc2F)c1F (stereo not drawn) [(298), N-(tetrahydrofuran-3-ylmethyl)-5-(2-fluorobenzyloxymethyl)-4-fluoroisoxazole-3-carboxamide]
- pest or weed control at 0.1 % strength (Culex pipiens pallens): ≥ 80%
- pest or weed control at 0.1 % strength (Blattella germanica): ≥ 80%
